The results in this text go back to publication PMC5669110 (Pharmacognosy Magazine, 2017).

Holding throughout (test): fluorogenic HDAC8 inhibitor screening kit
Format in all cases: biochemical

Assay [1] addresses T1, HDAC8 (histone deacetylase family member 8) (Homo sapiens, UniProt Q9BY41).
T1 sequence (Q9BY41 1-377): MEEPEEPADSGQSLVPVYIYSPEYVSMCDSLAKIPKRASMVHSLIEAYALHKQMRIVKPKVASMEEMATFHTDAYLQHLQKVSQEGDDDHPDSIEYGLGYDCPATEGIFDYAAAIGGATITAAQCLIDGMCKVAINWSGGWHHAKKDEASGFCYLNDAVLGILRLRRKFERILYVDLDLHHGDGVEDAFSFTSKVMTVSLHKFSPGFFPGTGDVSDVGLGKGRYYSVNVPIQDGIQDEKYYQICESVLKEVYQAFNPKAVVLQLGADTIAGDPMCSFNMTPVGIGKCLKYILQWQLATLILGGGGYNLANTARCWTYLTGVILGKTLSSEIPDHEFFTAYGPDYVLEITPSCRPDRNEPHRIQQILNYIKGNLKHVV
The note with it: read-out: % inhibition at 60.75 μM.

Assay [2] deals with T1, HDAC8 (histone deacetylase family member 8). The note with it: read-out: % inhibition at 310.25 μM.
Assay [3] shares this target. The note with it: read-out: % inhibition at 24.2 μM.

On to `O=C(O)/C=C/c1ccccc1` [CA, Cinnamic acid], for which the inhibition at 60.75 µM in assay [1] was found to be 9.3%.
In the case of `O=C/C=C/c1ccccc1` [CAL, Cinnamaldehyde], the inhibition at 310.25 µM in assay [2] stood at 18.5%.
Turning to `OCC=Cc1ccccc1` [CALC, Cinnamyl alcohol], the inhibition at 24.2 µM in assay [3] was 5.7%.
